Experimental findings from the supplement of paper PMC10307832 are described below.

Common to all, as to experiment: relative viability (nuclei count vs DMSO), 5 days (fraction); higher = more cells survive
Compound in assay [1]: CN(C)CC1=CC(=CC=C1)N=C(C2=CC=CC=C2)C3=C(NC4=C3C=CC(=C4)C(=O)N(C)C)O + C[C@@H](Oc1cc(-c2cnn(C3CCNCC3)c2)cnc1N)c1c(Cl)ccc(F)c1Cl [Crizotinib] (partner 1 µM)
The method in brief:
(§1)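 Medians of duplicate plates are given as relative viability. That measure is the nuclei count in treated wells divided by the count in vehicle wells. Counts were taken on 4× images of lung cancer cell lines in 1536-well plates, 5 days after pin-tool dosing the day after seeding with one drug alone or a fixed anchor-drug dose plus five library-drug doses (not always all listed) in √10 steps.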

Compound in assay [2]: CN(C)CC1=CC(=CC=C1)N=C(C2=CC=CC=C2)C3=C(NC4=C3C=CC(=C4)C(=O)N(C)C)O + C[C@]1(O)C[C@@H](c2nc(-c3ccc4ccc(-c5ccccc5)nc4c3)c3c(N)nccn32)C1 [Linsitinib] (partner 1 µM)
The method in brief:
as §1

Compound in assay [3]: CN(C)CC1=CC(=CC=C1)N=C(C2=CC=CC=C2)C3=C(NC4=C3C=CC(=C4)C(=O)N(C)C)O + COc1cccc2cc(-c3nc([C@H]4CC[C@H](C(=O)O)CC4)n4ncnc(N)c34)[nH]c12 [OSI-027] (partner 0.5 µM)
The method in brief: as §1

Compound in assay [4]: CN(C)CC1=CC(=CC=C1)N=C(C2=CC=CC=C2)C3=C(NC4=C3C=CC(=C4)C(=O)N(C)C)O + Cc1cc(Nc2cc(N3CCN(C)CC3)nc(Sc3ccc(NC(=O)C4CC4)cc3)n2)n[nH]1 [Tozasertib] (partner 0.1 µM)
The method in brief:
as §1

On to NCI-H520, for which the relative viability in assay [1] (first compound 0.08 µM) stood at 0.713; in assay [1] (first compound 0.253 µM) it was 0.722; in assay [1] (first compound 0.8 µM), 0.833; in assay [1] (first compound 2.53 µM), 0.705; in assay [1] (first compound 8 µM), 0.71; in assay [2] (first compound 0.08 µM) it was 0.896. The relative viability in assay [2] (first compound 0.253 µM) stood at 0.878; in assay [2] (first compound 0.8 µM) it was 0.919; in assay [2] (first compound 2.53 µM), 0.834; in assay [2] (first compound 8 µM) it was 0.97; in assay [3] (first compound 0.08 µM) it was 0.213; in assay [3] (first compound 0.253 µM), 0.247. Moreover, the relative viability in assay [3] (first compound 0.8 µM) worked out at 0.267; in assay [3] (first compound 2.53 µM) it was 0.3; in assay [3] (first compound 8 µM), 0.218; in assay [4] (first compound 0.08 µM), 0.45; in assay [4] (first compound 0.253 µM) it was 0.373; in assay [4] (first compound 0.8 µM), 0.425. Moreover, the relative viability in assay [4] (first compound 2.53 µM) is 0.454; in assay [4] (first compound 8 µM), 0.386.
As to NCI-H1793, the relative viability in assay [2] (first compound 0.08 µM) was 0.96; in assay [2] (first compound 0.253 µM), 0.84; in assay [2] (first compound 0.8 µM) it was 0.617; in assay [2] (first compound 2.53 µM) it was 1.03; in assay [2] (first compound 8 µM), 0.806; in assay [3] (first compound 0.08 µM) it was 0.29. Further, the relative viability in assay [3] (first compound 0.253 µM) was 0.299; in assay [3] (first compound 2.53 µM), 0.329; in assay [3] (first compound 8 µM), 0.196; in assay [4] (first compound 0.08 µM), 0.305; in assay [4] (first compound 0.253 µM), 0.385; in assay [4] (first compound 2.53 µM), 0.368. The relative viability in assay [4] (first compound 8 µM) was determined as 0.347.
On to NCI-H2405, for which the relative viability in assay [1] (first compound 0.08 µM) came to 0.808; in assay [1] (first compound 0.253 µM), 0.822; in assay [1] (first compound 0.8 µM) it was 0.827; in assay [1] (first compound 2.53 µM), 0.775; in assay [1] (first compound 8 µM), 0.758; in assay [2] (first compound 0.08 µM) it was 1.01. Moreover, the relative viability in assay [2] (first compound 0.253 µM) came to 0.845; in assay [2] (first compound 0.8 µM), 1.03; in assay [2] (first compound 2.53 µM) it was 0.867; in assay [2] (first compound 8 µM), 0.76; in assay [3] (first compound 0.08 µM), 0.629; in assay [3] (first compound 0.253 µM), 0.653. Also, the relative viability amounted to 0.618 in assay [3] (first compound 0.8 µM); 0.57 in assay [3] (first compound 2.53 µM); 0.544 in assay [3] (first compound 8 µM); 0.748 in assay [4] (first compound 0.08 µM); 0.74 in assay [4] (first compound 0.253 µM); 0.748 in assay [4] (first compound 0.8 µM). Further, the relative viability in assay [4] (first compound 2.53 µM) is 0.662; in assay [4] (first compound 8 µM), 0.645.
As for HCC-15, the relative viability in assay [1] (first compound 0.08 µM) was determined as 0.778; in assay [1] (first compound 0.253 µM) it was 0.832; in assay [1] (first compound 0.8 µM) it was 0.882; in assay [1] (first compound 2.53 µM) it was 0.889; in assay [1] (first compound 8 µM), 0.888; in assay [2] (first compound 0.08 µM), 0.869. Further, the relative viability in assay [2] (first compound 0.253 µM) is 0.849; in assay [2] (first compound 0.8 µM), 0.976; in assay [2] (first compound 2.53 µM), 0.974; in assay [2] (first compound 8 µM), 0.805; in assay [3] (first compound 0.08 µM) it was 0.705; in assay [3] (first compound 0.253 µM), 0.692. Besides, the relative viability in assay [3] (first compound 0.8 µM) turned out to be 0.77; in assay [3] (first compound 2.53 µM), 0.6; in assay [3] (first compound 8 µM), 0.719; in assay [4] (first compound 0.08 µM), 0.424; in assay [4] (first compound 0.253 µM), 0.387; in assay [4] (first compound 0.8 µM), 0.39. Besides, the relative viability in assay [4] (first compound 2.53 µM) was 0.365; in assay [4] (first compound 8 µM), 0.453.
On to NCI-H1975, for which the relative viability is 0.969 in assay [1] (first compound 0.08 µM); 1.07 in assay [1] (first compound 0.253 µM); 0.842 in assay [1] (first compound 0.8 µM); 0.859 in assay [1] (first compound 2.53 µM); 0.822 in assay [1] (first compound 8 µM); 0.935 in assay [2] (first compound 0.08 µM). Further, the relative viability was 0.999 in assay [2] (first compound 0.253 µM); 0.824 in assay [2] (first compound 0.8 µM); 0.871 in assay [2] (first compound 2.53 µM); 0.855 in assay [2] (first compound 8 µM); 0.747 in assay [3] (first compound 0.08 µM); 0.0592 in assay [3] (first compound 0.253 µM). For the same cell line, the relative viability in assay [3] (first compound 0.8 µM) turned out to be 0.675; in assay [3] (first compound 2.53 µM) it was 0.747; in assay [3] (first compound 8 µM), 0.585; in assay [4] (first compound 0.08 µM) it was 0.807; in assay [4] (first compound 0.253 µM), 0.785; in assay [4] (first compound 0.8 µM) it was 0.736. In addition, the relative viability in assay [4] (first compound 2.53 µM) was 0.757; in assay [4] (first compound 8 µM) it was 0.708.
NCI-H1755: the relative viability in assay [1] (first compound 0.08 µM) turned out to be 0.792; in assay [1] (first compound 0.253 µM) it was 0.897; in assay [1] (first compound 0.8 µM), 0.789; in assay [1] (first compound 2.53 µM) it was 0.758; in assay [1] (first compound 8 µM), 0.825; in assay [2] (first compound 0.08 µM) it was 0.986. Further, the relative viability in assay [2] (first compound 0.253 µM) was determined as 1.01; in assay [2] (first compound 0.8 µM), 0.926; in assay [2] (first compound 2.53 µM), 0.998; in assay [2] (first compound 8 µM), 0.973; in assay [3] (first compound 0.08 µM), 0.707; in assay [3] (first compound 0.253 µM), 0.7. The relative viability came to 0.798 in assay [3] (first compound 0.8 µM); 0.773 in assay [3] (first compound 2.53 µM); 0.622 in assay [3] (first compound 8 µM); 0.531 in assay [4] (first compound 0.08 µM); 0.479 in assay [4] (first compound 0.253 µM); 0.642 in assay [4] (first compound 0.8 µM). The relative viability in assay [4] (first compound 2.53 µM) was 0.594; in assay [4] (first compound 8 µM), 0.615.
For NCI-H2342, the relative viability in assay [3] (first compound 0.08 µM) came to 0.63; in assay [3] (first compound 0.253 µM), 0.535; in assay [3] (first compound 0.8 µM), 0.621; in assay [3] (first compound 2.53 µM), 0.708; in assay [3] (first compound 8 µM), 0.65; in assay [4] (first compound 0.08 µM), 0.497. The relative viability was determined as 0.601 in assay [4] (first compound 0.253 µM), 0.549 in assay [4] (first compound 0.8 µM), 0.45 in assay [4] (first compound 2.53 µM) and 0.613 in assay [4] (first compound 8 µM).
In the case of COR-L 105, the relative viability in assay [1] (first compound 0.08 µM) was determined as 0.857; in assay [1] (first compound 0.253 µM), 0.892; in assay [1] (first compound 0.8 µM), 0.882; in assay [1] (first compound 2.53 µM), 0.644; in assay [1] (first compound 8 µM), 0.625; in assay [2] (first compound 0.08 µM), 0.888. Further, the relative viability in assay [2] (first compound 0.253 µM) came out at 0.838; in assay [2] (first compound 0.8 µM) it was 1.1; in assay [2] (first compound 2.53 µM), 1.02; in assay [2] (first compound 8 µM), 0.805; in assay [3] (first compound 0.08 µM), 0.634; in assay [3] (first compound 0.253 µM), 0.641. The relative viability in assay [3] (first compound 0.8 µM) worked out at 0.477; in assay [3] (first compound 2.53 µM) it was 0.687; in assay [3] (first compound 8 µM) it was 0.609; in assay [4] (first compound 0.08 µM), 0.372; in assay [4] (first compound 0.253 µM) it was 0.369; in assay [4] (first compound 0.8 µM), 0.336. Further, the relative viability amounted to 0.346 in assay [4] (first compound 2.53 µM) and 0.361 in assay [4] (first compound 8 µM).
